In patent publication US7067257B2, “Thyrotropin-releasing hormone analogues and their therapeutic applications” (University of Florida, priority 2002, dated 2006):
Square brackets hold non-standard residues; d marks the D form. Peptide text beside a SMILES is read from it. pGlu = O=C1CC[C@@H](C(=O)O)N1

Assays:
Swiss Webster mice [1] = experiment: duration of analeptic action, antagonism of barbituate-induced anesthesia (Example 6); format: in vivo; conditions: 15 μmol/kg i.v.; pentobarbital injection at 60 minutes compared to after 10 minutes
Description: A pharmacological paradigm was used to assess the potency of the subject TRH analogues as central nervous system agents administered to animals in their prodrug forms in vivo. The antagonism on the barbituate-induced anesthesia was explored to survey the extent of activation of cholinergic neurons by the test compounds. Ten to sixteen Swiss Webster mice (30±2 g) were used in each group. Test compounds were dissolved in degassed DMSO. The vehicle alone (1.5 ml/kg body weight) or equimolar doses of TRH as control and prodrugs according to the present invention (15 μmol/kg body weight) were injected through the tail vein. After 10 minutes, each animal received an intraperitoneal (i.p.) injection of sodium pentobarbital at dose 60 mg/kg bodyweight. An increase in the time after which the animals were injected with TRH and a TRH analogue according to the present invention and after the cholinergic challenge was made was increased. The sleeping time was recorded as the time elapsed from the onset of the loss of righting reflex until the reflex was regained.

[2] = rat, human, in vivo; cited from earlier work
[3] = in vitro stability in mouse brain homogenate; format: in vitro ADME; conditions: mouse brain homogenate (20% w/v)
Description: In vitro stability studies in mouse brain homogenate (20% w/v) were conducted at 100 μM concentration of TRH analogues of Formula I wherein R^3 is an ester moiety. Analytical reversed-phase gradient HPLC with UV detection (λ=214 nm) was used to monitor the decline in the concentration in the compound added. The half-lives (t1/2) were 20 and 22 minutes for the TRH analogues derived from primary alcohols and 25 minutes and 70 minute for TRH analogues derived from […]. TRH analogues of the subject invention in which R^3 is benzyl ester was discovered to be relatively stable in the tissue (t1/2>2 hours).

Swiss Webster mice [4] = experiment: antagonism of barbiturate-induced anesthesia in mice (Example 9); format: in vivo; conditions: 10 μmole/kg i.v.; sodium pentobarbital 60 mg/kg i.p. after 10 minutes
Description: The antagonism of the barbiturate-induced anesthesia in mice was used to assess the increase in the access of the TRH analogues of the present invention to the central nervous system compared to the parent TRH-like tripeptide (pGlu-Glu-Pro-NH2). In this assay related to the analeptic activity of the TRH-like tripeptide, 10 to 18 Swiss Webster mice (30±2 g body weight) were used in each group. The vehicle alone (1.5 ml/kg body weight) or equimolar doses of TRH-like tripeptide as control and the TRH analogues of Formula I (10 μmole/kg body weight) were injected through the tail vein (i.v.). In another group of animals, the TRH-like tripeptide was administered at 10-times higher dose (100 μmol/kg) for comparison. After 10 minutes, each animal received an intraperitoneal (i.p.) injection of sodium pentobarbital at a dose of 60 mg/kg body weight. The sleeping time was recorded from the onset of the loss of righting reflex until the reflex was regained.
Based on measuring analeptic activity in the animal model selected.

Compound: NC(=O)[C@@H]1CCCN1C(=O)[C@H](Cc1cnc[nH]1)NC(=O)[C@@H]1CCC(=O)N1 [TRH, L-pyroglutamyl-L-histidyl-L-prolinamide]
- loss of central nervous system (analeptic) activity (Swiss Webster mice [1]): over 50%
- biological half-life [2]: 4–6 minutes

Compound: NC(=O)[C@@H]1CCCN1C(=O)[C@H](CCC(=O)OCc1ccccc1)NC(=O)[C@@H]1CCC(=O)N1 [benzyl ester] (HELM PEPTIDE1{[Glp].E.P.[am]}|CHEM1{[c1ccc(CO[*:1])cc1]}$PEPTIDE1,CHEM1,2:R3-1:R1$$$V2.0)
- half-life at 100 μM [3]: > 2 h

Compound: [pGlu]-Glu-Pro-NH2 [TRH-like tripeptide]
- sleeping time (Swiss Webster mice [4]): 65±3 minutes SEM
